Test results reported in BindingDB's records for doi:10.7270/Q2ZP450S (Catholic University of Daegu, 2017).

Biological target: T1, Tyrosine-protein phosphatase non-receptor type 1 (Homo sapiens, UniProt P18031)
T1 sequence (P18031 whole entry): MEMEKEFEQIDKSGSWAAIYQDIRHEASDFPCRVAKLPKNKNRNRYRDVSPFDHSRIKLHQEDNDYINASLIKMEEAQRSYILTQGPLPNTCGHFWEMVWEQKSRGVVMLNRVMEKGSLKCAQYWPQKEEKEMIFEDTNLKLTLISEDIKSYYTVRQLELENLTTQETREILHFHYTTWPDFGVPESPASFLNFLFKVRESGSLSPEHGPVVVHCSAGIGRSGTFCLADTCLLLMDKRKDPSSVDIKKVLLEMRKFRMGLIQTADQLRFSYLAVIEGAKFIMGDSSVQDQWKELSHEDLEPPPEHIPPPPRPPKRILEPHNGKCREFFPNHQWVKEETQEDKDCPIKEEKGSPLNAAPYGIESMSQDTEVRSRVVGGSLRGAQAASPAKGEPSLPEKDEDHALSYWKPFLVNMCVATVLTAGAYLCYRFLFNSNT
Experiment: PTP1B Assay
Conditions: pH 6; 37 °C
Method: In each 96-well plates (total 200 μL of volume), there were 2 mM p-NPP and PTP1B (0.05-0.1 μg) in a buffer containing 50 mM citrate (pH 6.0), 0.1 M NaCl, 1 mM EDTA, and 1 mM dithiothreitol (DTT) with or without test compound, following by pre-incubated at 37 °C for 10 min, and then implemented with 50 μL of p-NPP. The reaction was finally added with 10 M NaOH.

Compound	IC50 [µM]	Ki [µM]
O=C1C=CC(=C(c2ccc(O)cc2)c2c(-c3ccc(O)cc3O)ccc(CO)c2C#Cc2ccc(O)cc2)C=C1 [PTP1B spring 5 (5)]	15.9	13.9
COc1ccc(-c2ccc(O)cc2)c(C(c2ccc(O)cc2)c2ccc(O)cc2)c1C#Cc1ccc(O)cc1 [PTP1B spring 7 (7)]	4.8	3
COc1cc(C#Cc2c(CO)ccc(-c3ccc(O)cc3)c2C(=C2C=CC(=O)C=C2)c2ccc(O)cc2)ccc1O [Selaginellin V (3)]	14.5	11.3

Continued, values first:

IC50 [µM]	Ki [µM]	Compound
58		O=C1C=CC(=C(c2ccc(O)cc2)c2c(C#Cc3ccc(O)cc3)cccc2-c2ccc(O)cc2)C=C1 [Selaginellin T (1)]
13.8	9.7	Cc1ccc(-c2ccc(O)cc2)c(C(=C2C=CC(=O)C=C2)c2ccc(O)cc2)c1C#Cc1ccc(O)cc1 [Selaginellin U (2)]
14.6	11.1	O=C1C=CC(=C(c2ccc(O)cc2)c2c(C#Cc3ccc(O)cc3)cccc2-c2ccc(O)cc2O)C=C1 [Selaginellin W (4)]
